Measured values from patent US5847159A, “1-[ω-(3,4-dihydro-2-naphthalenyl)alkyl]-cyclic amine derivatives, process for preparing the same, and pharmaceutical composition containing the same” (priority 1995, dated 1998).

Experiments:
[1] = tested on: polysynaptic spinal reflex; test: Inhibitory effect on polysynaptic spinal reflex; type: in vivo, Male Std-Wistar rats; conditions: iv; rat; read-out: Inhibitory effect on polysynaptic spinal reflex, ID50
Protocol: Inhibitory effect on polysynaptic spinal reflex
The experiment was performed according to the method of Itoh, et al. [Japan J. Parmacol.,23, 1125 (1982)]. Male Std-Wistar rats weighing 250-350 g were used in groups of 4-6 animals. Under anesthesia with combined i.p. injection of urethane (400 mg/kg) and α-chloralose (50 mg/kg), the rat fixed in a stereotaxic apparatus was clamped at the spine and tibial bane. A concentric needle electrode was inserted into the left gastrocnemius muscle, and the central end of the ipsilateral common peroneal nerve at the same side was supramaximally stimulated by an electrical stimulator (rectangular pulse,0.1 msec,0.1 Hz). Test compounds dissolved in distilled water were injected via a cannula inserted into the right femoral vein, and the evoked electromyogram was periodically recorded (2, 5, 10, 20 and 30 minutes after the injection). […] The results are shown in Table 5 along with the results of Experiments 3 and 5.

exploratory behavior = test: Inhibitory effect on exploratory behavior; type: in vivo, Male Std-Wistar rats; conditions: 500 mg/kg p.o.; one hour after administration; rat
Protocol: Inhibitory effect on exploratory behavior
Male Std-Wistar rats weighing 150-200 g were used in groups of 5 animals. One hour after oral administration of test compounds suspended in 0.5% aqueous tragacanth solution, animals were individually placed in a test cage (23×35×30 cm) on an Animex activity meter (Farad Co., Sweden). Immediately thereafter, locomotor counting was started and lasted for three minutes. The mean value of the exploratory behavior (count/3 minutes) in the test compound-treated groups were determined, and then inhibitory effect of each test compound was calculated as compared with that of the control group (0.5% aqueous tragacanth solution-treated group). The results are shown in Table 5 along with the results of Experiments 4 and 5.

[2] = tested on: bladder contractions induced by stimulation of the pelvic nerve, peripheral cut end; test: Effect on the bladder contractions induced by stimulation of the pelvic nerve (peripheral cut end); type: in vivo, Male Std-Wistar rats; conditions: 5 mg/kg i.v. (jugular vein), mean±SEM
From the text: (§1) Effect on the bladder contractions induced by stimulation of the pelvic nerve
(§2) Male Std-Wistar rats weighing 250-350 g were used. Under urethane anesthesia (1 g/kg, i.p.), both ureters were tied and cut at the side of kidney after a mid line incision of the abdomen. When the peripheral end of the pelvic nerve was stimulated, one side of the pelvic nerve was cut. When the central cut end of the nerve was stimulated, one side of the pelvic nerve was cut like in the peripheral end stimulation after both the hypogastric nerves were cut. Then, the bladder was exposed, the cannula connected to a syringe and a pressure transducer was inserted into the bladder via a small incision at an apex of the dome, and the proximal urethra was then ligated. Fifteen minutes after the operation, warm saline solution of an amount (0.1-0.2 ml) being small enough not to cause rhythmic contraction was infused into the bladder using a syringe. The change of the intravesical pressure was recorded on a recorder via a pressure transducer. The pelvic nerve was stimulated at the peripheral cut end or the central one by a pair of platinum electrodes with pulse of 1 msec duration, 3 v strength and a frequency of 10 Hz (for peripheral) or 5 v strength and a frequency of 20 Hz (for central), for 5 seconds every 2 minutes. Test compounds dissolved in distilled water were injected at a dose of 5 mg/kg via the cannula inserted into the jugular vein.
(§3) Each value in the table is mean±standard error of mean in 3-4 animals.

[3] = tested on: rhythmic bladder contractions (micturition reflex); test: Inhibitory effect on rhythmic bladder contractions (micturition reflex); type: in vivo, Female Std-Wistar rats; conditions: 2 h; i.d.; two hours; rat; read-out: ED50, inhibitory effect on contractile frequency
Protocol: Inhibitory effect on rhythmic bladder contractions (micturition reflex)
The experiment was carried out according to the method of Maggi, C. […] It is generally accepted that the rhythmic bladder contractions evoked by instillation of saline solution into the bladder are mediated via the micturition reflex pathway like that of natural urination.
Female Std-Wistar rats weighing 160-190 g were used in groups of 3-4 animals. Under urethane anesthesia (1 g/kg, s.c.), both ureters were tied and cut at the side of kidney after a mid line incision of the abdomen. A cannula, connected to a syringe and a pressure transducer, was inserted into the bladder via the external urethral orifice and ligated around the proximal urethra. The animal was allowed to stay for about 30 minutes after the operation. The bladder was slowly filled with warm saline solution (0.4-1 ml) by means of a syringe until rhythmic contractions were induced. The change of the intravesical pressure was recorded on a recorder via a pressure transducer. After the rhythmic contractions became constant, test compounds dissolved or suspended in 0.5% aqueous tragacanth solution were administered via the cannula inserted for intraduodenal administration. The effect of each compound on the contractile frequency was investigated every 15 minutes till two hours after the administration.
The inhibitory rate on the contractile frequency (two hours) was expressed as the mean value of the inhibitory rates at an every 15-minute interval for two hours after the administration, which was determined based on the contractile frequency for 15 minutes before the administration.

[4] = tested on: bladder contractions induced by stimulation of the pelvic nerve, central cut end; test: Effect on the bladder contractions induced by stimulation of the pelvic nerve (central cut end); type: in vivo, Male Std-Wistar rats; conditions: 5 mg/kg i.v. (jugular vein), mean±SEM
From the text: as §1, §2, §3

[5] = tested on: neurogenic bladder, unstable bladder, and nervous pollakisuria; conditions: Nishinihon J. Urol., 54, 1472 and 1820 (1992); cited from earlier work
dopamine receptor = conditions: in vitro; cited from earlier work

Structure (SMILES) | ED50 [1] [mg/kg] | Inhibitory rate, exploratory behavior (exploratory behavior) [%] | Inhibitory rate on the contraction caused by the stimulation of the peripheral cut end, 2 min. ([2]; 2 min) [%] | Inhibitory rate on the contraction caused by the stimulation of the peripheral cut end, 4 min. ([2]; 4 min) [%] | Inhibitory rate on the contraction caused by the stimulation of the peripheral cut end, 10 min. ([2]; 10 min, * p<0.05) [%] | Inhibitory rate on the contraction caused by the stimulation of the peripheral cut end, 20 min. ([2]; 20 min, * p<0.05) [%] | ED50 [3] [mg/kg] | Inhibitory rate on the contraction caused by the stimulation of the central cut end, 2 min. ([4]; 2 min, * p<0.05) [%] | Inhibitory rate on the contraction caused by the stimulation of the central cut end, 4 min. ([4]; 4 min, * p<0.05, ** <0.01) [%] | Inhibitory rate on the contraction caused by the stimulation of the central cut end, 10 min. ([4]; 10 min, ** <0.01) [%] | Inhibitory rate on the contraction caused by the stimulation of the central cut end, 20 min. ([4]; 20 min, * p<0.05, ** <0.01) [%] | Efficacy for neurogenic bladder, unstable bladder, nervous pollakisuria [5] | Affinity for dopamine receptor (dopamine receptor)
CCc1ccc(C(=O)C(C)CN2CCCC2)cc1.Cl (stereo not shown) [Compound A, 1-(4-ethylphenyl)-2-methyl-3-(1-pyrrolidinyl)-1-propanone hydrochloride, reference compound] | 4.22 | 28.3 | 6.2 ± 5.1 | 14.7 ± 4.0 | 25.1 ± 4.2 | 31.6 ± 2.5 | 34.8 | 21.0 ± 10.7 | 22.5 ± 7.3 | 29.3 ± 7.7 | 40.6 ± 8.8 | effective for the symptoms such as neurogenic bladder, unstable bladder, and nervous pollakisuria | 
C1=C(CCN2CCCCC2)CCc2ccccc21.Cl [1-[2-(3,4-dihydro-2-naphthalenyl)ethyl]piperidine hydrochloride] |  |  |  |  |  |  |  |  |  |  |  |  | quite low affinity
